Measured values as given in US20240301319A1, “PERFUMING COMPOSITIONS” (FIRMNICH SA, priority 2017, published 2024).
Structures can show the parent of a compound that is named as a salt. Where two headings read alike, the source gives them in different places.

Assays:
[1] = Odor threshold and odor value of perfuming compounds (Tables 4 to 10)
[2] = Volatility of perfuming compounds (Tables 4 to 10), with top/middle/bottom note type; type: physicochemical
Method in brief: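 Note type follows from air volatility (μg/l): bottom 49–0.1, middle 99–50, top 70,000–100. Compounds are listed within watery, green, fruity, citrus, sweet, gourmand and woody families.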

[3] = Table 6, perfuming compounds having a fruity note
[4] = Table 7, citrus note, equals volatility divided by odor threshold
[5] = Table 6, perfuming compounds having a fruity note, note type by volatility
[6] = Table 7, citrus note, top, middle or bottom note
[7] = perfuming compounds having a green note
[8] = note type (Top/Middle/Bottom) by volatility, perfuming compounds having a green note
[9] = Table 10, perfuming compounds having a woody note, note type by volatility
[10] = Table 8, perfuming compounds having a sweet note
[11] = Table 8, perfuming compounds having a sweet note, note type by volatility
[12] = Table 9, perfuming compounds having a gourmand note, note type by volatility

O=C1CCCCCCC/C=C/CCCCCCO1 [(10E)-oxacycloheptadec-10-en-2-one]
Odor Threshold [1, 3]: 4.77E−04 μg/l air
Odor Value [1, 3]: 1.55E+03
Odor Threshold (μg/l air) ([1]; Table 7, citrus note): 4.77E−04 μg/l air
Odor Value [1, 4]: 1.55E+03
Volatility [2, 3]: 0.74 μg/l air
Type [2, 5]: Bottom
Volatility (μg/l air) ([2]; Table 7, citrus note): 0.74 μg/l air
Type [2, 6]: Bottom

CCC/C=C/CO [(E)-2-HEXEN-1-OL]
Odor Threshold (μg/l air) [1, 7]: 1.29E−01 μg/l air
Type [2, 8]: Top
Volatility (μg/l air) [2, 7]: 3752.17 μg/l air

CCC/C=C/COC(C)=O [(E)-2-HEXENYL ACETATE]
Odor Threshold (μg/l air) [1, 7]: 2.08E−01 μg/l air
Volatility [2, 3]: 6062.68 μg/l air
Type [2, 5]: TOP (perfuming compounds having a volatility ranging from 70,000 to 100 μg/l in air are referred to as “top notes”)
Type [2, 8]: Top
Volatility (μg/l air) [2, 7]: 6062.68 μg/l air

C/C=C/c1ccc(OC(C)=O)c(OC)c1 [(E)-2-METHOXY-4-(1-PROPENYL)PHENYL ACETATE]
Odor Threshold [1, 3]: 4.08E−07 μg/l air
Odor Value [1, 3]: 4.54E+06
Odor Threshold (μg/l air) ([1]; Table 7, citrus note): 4.08E−07 μg/l air
Odor Value [1, 4]: 4.54E+06
Volatility [2, 3]: 1.85 μg/l air
Type [2, 5]: Bottom
Volatility (μg/l air) ([2]; Table 7, citrus note): 1.85 μg/l air
Type [2, 6]: Bottom

CCCCC/C(C=O)=C\c1ccccc1 [(E)-2-PENTYL-3-PHENYL-2-PROPENAL]
Odor Threshold [1, 3]: 3.64E−04 μg/l air
Odor Value [1, 3]: 1.87E+03
Odor Threshold (μg/l air) ([1]; Table 7, citrus note): 3.64E−04 μg/l air
Odor Value [1, 4]: 1.87E+03
Volatility [2, 3]: 0.68 μg/l air
Type [2, 5]: Bottom
Volatility (μg/l air) ([2]; Table 7, citrus note): 0.68 μg/l air
Type [2, 6]: Bottom

CC(=O)OC/C=C(\C)CCC=C(C)C [(E)-3,7-DIMETHYL-2,6-OCTADIENYL ACETATE]
Odor Threshold [1, 3]: 3.57E−02 μg/l air
Odor Threshold (μg/l air) [1, 7]: 3.57E−02 μg/l air
Type [2, 5]: Middle
Type [2, 8]: Middle
Volatility (μg/l air) [2, 7]: 79.23 μg/l air

O=C/C=C/c1ccccc1 [(E)-3-PHENYL-2-PROPENAL]
Odor Threshold ([1]; Table 10, woody note): 1.36E−03 μg/l air
Type [2, 9]: Middle
Volatility ([2]; Table 10, woody note): 70.14 μg/l air

CC(=O)OC/C=C/c1ccccc1 [(E)-3-PHENYL-2-PROPENYL ACETATE]
Odor Threshold [1, 3]: 1.87E−04 μg/l air
Odor Value [1, 3]: 1.10E+05
Volatility [2, 3]: 20.47 μg/l air
Type [2, 5]: Bottom

CCC(=O)OC/C=C/c1ccccc1 [(E)-3-PHENYL-2-PROPENYL PROPANOATE]
Odor Threshold [1, 3]: 1.28E−04 μg/l air
Odor Value [1, 3]: 6.35E+04
Volatility [2, 3]: 8.14 μg/l air
Type [2, 5]: Bottom

CCCCC/C=C/CCC=O [(E)-4-DECENAL]
Odor Threshold (μg/l air) ([1]; Table 7, citrus note): 7.59E−05 μg/l air
Odor Value [1, 4]: 9.11E+06
Volatility (μg/l air) ([2]; Table 7, citrus note): 691.34 μg/l air
Type [2, 6]: Top

CCOCOC1CCCCCCCCCCC1 [(ETHOXYMETHOXY)CYCLODODECANE]
Odor Threshold ([1]; Table 10, woody note): 8.90E−02 μg/l air
Type [2, 9]: Bottom
Volatility ([2]; Table 10, woody note): 6.63 μg/l air

CC/C=C\CCO [(Z)-3-HEXEN-1-OL]
Odor Threshold (μg/l air) [1, 7]: 1.13E−02 μg/l air
Type [2, 8]: Top
Volatility (μg/l air) [2, 7]: 5986.62 μg/l air

CC/C=C\CCOC(C)=O [(Z)-3-HEXENYL ACETATE]
Odor Threshold (μg/l air) [1, 7]: 1.00E−02 μg/l air
Type [2, 8]: Top
Volatility (μg/l air) [2, 7]: 3398.34 μg/l air

CC/C=C\CCOC=O [(Z)-3-HEXENYL FORMATE]
Odor Threshold (μg/l air) [1, 7]: 2.11E−03 μg/l air
Volatility [2, 3]: 9873.53 μg/l air
Type [2, 5]: TOP (perfuming compounds having a volatility ranging from 70,000 to 100 μg/l in air are referred to as “top notes”)
Type [2, 8]: Top
Volatility (μg/l air) [2, 7]: 9873.53 μg/l air

CC/C=C\CCOC(=O)C(C)C [(Z)-3-HEXENYL ISOBUTYRATE]
Odor Threshold (μg/l air) [1, 7]: 4.54E−02 μg/l air
Volatility [2, 3]: 1073.97 μg/l air
Type [2, 5]: TOP (perfuming compounds having a volatility ranging from 70,000 to 100 μg/l in air are referred to as “top notes”)
Type [2, 8]: Top
Volatility (μg/l air) [2, 7]: 1073.97 μg/l air

CCCCC/C=C\CCC=O [(Z)-4-DECENAL]
Odor Threshold (μg/l air) [1, 7]: 3.78E−05 μg/l air
Type [2, 8]: Top
Volatility (μg/l air) [2, 7]: 629.54 μg/l air

CC/C=C\CCCCC=O [(Z)-6-NONENAL]
Odor Threshold (μg/l air) [1, 7]: 2.91E−05 μg/l air
Type [2, 8]: Top
Volatility (μg/l air) [2, 7]: 2431.73 μg/l air

CCCOC(=O)[C@H](C)OC(C)(C)CC [(−)-PROPYL (S)-2-(1,1-DIMETHYLPROPOXY)PROPANOATE]
Odor Threshold (μg/l air) ([1]; Table 7, citrus note): 4.98E−01 μg/l air
Odor Value [1, 4]: 2.00E+03
Volatility (μg/l air) ([2]; Table 7, citrus note): 995.16 μg/l air
Type [2, 6]: Top

C=CCOC(=O)CCC1CCCCC1 [ALLYL 3-CYCLOHEXYLPROPANOATE]
Odor Threshold [1, 3]: 7.96E−03 μg/l air
Odor Value [1, 3]: 9.53E+03
Odor Threshold [1, 10]: 7.96E−03 μg/l air
Odor Value [1, 10]: 9.53E+03
Odor Threshold ([1]; Table 9, gourmand note): 7.96E−03 μg/l air
Odor Threshold (μg/l air) [1, 7]: 7.96E−03 μg/l air
Volatility [2, 3]: 75.80 μg/l air
Type [2, 5]: Middle
Volatility [2, 10]: 75.80 μg/l air
Type [2, 11]: Middle
Volatility ([2]; Table 9, gourmand note): 75.80 μg/l air
Type [2, 12]: Middle
Type [2, 8]: Middle
Volatility (μg/l air) [2, 7]: 75.80 μg/l air

C=CCOC(=O)COC1CCCCC1 [ALLYL (CYCLOHEXYLOXY)ACETATE]
Odor Threshold [1, 3]: 4.66E−05 μg/l air
Odor Value [1, 3]: 1.01E+06
Odor Threshold (μg/l air) [1, 7]: 4.66E−05 μg/l air
Volatility [2, 3]: 47.01 μg/l air
Type [2, 5]: Bottom
Type [2, 8]: Bottom
Volatility (μg/l air) [2, 7]: 47.01 μg/l air

C=CCOC(=O)CCCCCC [ALLYL HEPTANOATE]
Odor Threshold [1, 10]: 1.75E−02 μg/l air
Odor Value [1, 10]: 7.06E+04
Odor Threshold ([1]; Table 9, gourmand note): 1.75E−02 μg/l air
Odor Threshold (μg/l air) [1, 7]: 1.75E−02 μg/l air
Volatility [2, 3]: 1235.24 μg/l air
Type [2, 5]: TOP (perfuming compounds having a volatility ranging from 70,000 to 100 μg/l in air are referred to as “top notes”)
Volatility [2, 10]: 1235.24 μg/l air
Type [2, 11]: Top
Volatility ([2]; Table 9, gourmand note): 1235.24 μg/l air
Type [2, 12]: Top
Type [2, 8]: Top
Volatility (μg/l air) [2, 7]: 1235.24 μg/l air

C/C=C(\C)C(=O)OCc1ccccc1 [BENZYL (E)-2-METHYL-2-BUTENOATE]
Odor Threshold [1, 3]: 3.07E−04 μg/l air
Odor Value [1, 3]: 1.11E+05
Odor Threshold ([1]; Table 10, woody note): 3.07E−04 μg/l air
Volatility [2, 3]: 33.88 μg/l air
Type [2, 5]: Bottom
Type [2, 9]: Bottom
Volatility ([2]; Table 10, woody note): 33.88 μg/l air

O=C(OCc1ccccc1)c1ccccc1 [BENZYL BENZOATE]
Odor Threshold [1, 3]: 3.67E−02 μg/l air
Odor Value [1, 3]: 2.31E+01
Odor Threshold (μg/l air) ([1]; Table 7, citrus note): 3.67E−02 μg/l air
Odor Value [1, 4]: 2.31E+01
Volatility [2, 3]: 0.85 μg/l air
Type [2, 5]: Bottom
Volatility (μg/l air) ([2]; Table 7, citrus note): 0.85 μg/l air
Type [2, 6]: Bottom

CCC(=O)OCc1ccccc1 [BENZYL PROPANOATE]
Odor Threshold [1, 3]: 2.81E−02 μg/l air
Odor Value [1, 3]: 4.04E+03
Odor Threshold (μg/l air) [1, 7]: 2.81E−02 μg/l air
Volatility [2, 3]: 113.60 μg/l air
Type [2, 5]: TOP (perfuming compounds having a volatility ranging from 70,000 to 100 μg/l in air are referred to as “top notes”)
Type [2, 8]: Top
Volatility (μg/l air) [2, 7]: 113.60 μg/l air

CCCCOC(C)=O [BUTYL ACETATE]
Odor Threshold [1, 10]: 4.18E−01 μg/l air
Odor Value [1, 10]: 2.80E+05
Odor Threshold ([1]; Table 9, gourmand note): 4.18E−01 μg/l air
Volatility [2]: 117207.52 μg/l air
Type [2, 5]: TOP (perfuming compounds having a volatility ranging from 70,000 to 100 μg/l in air are referred to as “top notes”)
Type [2, 11]: Top
Type [2, 12]: Top
